Tests used:
[1] = biological target: T1, Recombinant human farnesyl transferase (FTase) (Homo sapiens, UniProt P49356); experiment: FTase fluorescence assay (farnesylation of dansyl-GCVLS peptide); type: biochemical; conditions: recombinant human FTase 2.5 nM, Dansyl-GCVLS 85 nM, FPP 30 nM, 30° C., 50 minutes
T1 construct: purchased Crelux (Martinsried, Germany)

[2] = biological target: T2, geranylgeranyl transferase type-1 (GGTase) (Homo sapiens, UniProt P53609); experiment: GGTase fluorescence assay (dansyl-GCVLL peptide, GGPP); type: biochemical; conditions: GGTase 25 nM, Dansyl-GCVLL 10 μM, GGPP 10 μM, 30° C., 120 minutes
T2 construct: purchased Crelux (Martinsried, Germany)
Text: (§1) T24/83 cell line was purchased from the European Collection of Authenticated Cell Cultures (Salisbury, UK). Recombinant human farnesyl transferase (FTase) and geranylgeranyl transferase type-1 (GGTase) were obtained from Crelux (Martinsried, Germany). Dansyl labelled GCVLS peptide was purchased from Bachem (Torrance, CA), and Dansyl labelled GCVLL peptide was purchased from Bio Synthesis (Lewisville, TX). Farnesyl Pyrophosphate (FPP) and Geranylgeranyl pyrophosphate (GGPP) were purchased from Cayman (Ann Arbor, MI).
Geranylgeranyl transferase (GGTase) is a closely related enzyme to farnesyl transferase (FTase). The two enzymes share a common regulatory chain but have distinct individual enzymatic domains. GGTase catalyses the addition of an alternative prenylated side chain to some of the same proteins that may also be farnesylated. Thus, selective inhibitory activity against FTase relative to GGTase is a critical characteristic for FTase inhibitors.
The IC50 value of the compounds disclosed herein as inhibitors of Ftase and/or GGTase, was determined by measuring the concentration (provided in nM) necessary to achieve inhibition of enzyme activity by 50% (IC50). […] Compounds having a low IC50 value against FTase, for example an IC50 (FTase)<100 nM, such as an IC50 (FTase)<10 nM, are preferred. Compounds having a low IC50 value against FTase and a high IC50 value against GGTase, for example an IC50 (FTase)<100 nM, such as an IC50 (FTase)<10 nM, and an IC50 (GGTase)>100 nM, are potent and selective inhibitors of FTase, and are particularly preferred.
The inhibition activities of the compounds disclosed herein against Ftase and GGTase were measured in the respective fluorescence assays as follows:
For the GGTase assay, GGTase (25 nM), Dansyl labelled GCVLL peptide (10 μM), GGPP (10 μM) and inhibitor were mixed in assay buffer (50 mM Tris, pH 7.5, 10 mM magnesium chloride, 10 μM zinc chloride, 0.08% CHAPS, 5 mM dithiothreitol) and incubated in a total volume of 20 μL at 30° C. for 120 minutes.
For both the FTase assay and GGTase assay, fluorescence intensity was detected (excitation at 340 nm and emission at 486 nm) using EnVision (PerkinElmer; Waltham, MA), IC50 determinations were performed using a sigmoidal dose-response model with Xlfit software (IDBS, Inc.; Boston, MA), and tipifarnib was used as a positive control. All the assay plates for each assay passed the QC criteria (S/B, Z factor).

[3] = tested on: T24/83 cells; experiment: T24/83 cell proliferation assay (CellTiter-Glo); type: cell-based; conditions: Homo sapiens, 96 h, 4 days
Text: as §1
Mutant oncogenic HRAS was originally identified in a human bladder carcinoma cell line called T24. T24/83 is a subline of T24 established more recently that has more favorable growth characteristics for in vitro assays. Thus, T24/83 is a well-characterized mutant HRAS-dependent cell line that is an ideal model for quantifying the HRAS-dependent antitumor activity of farnesyltransferase inhibitors.
T24/83 cells were inoculated into 384 well plates at 100 cells/well, and grown in the presence of inhibitor, 0.7% DMSO as a negative control, or 100 μM tipifarnib as a positive control, at 37° C. for 4 days. Cell viability was assessed using the CellTiter-Glo Kit (CTG) (Promega; Madison, WI). Luminescence was recorded using EnVision microplate reader (PerkinElmer; Waltham, MA). In this assay, tipifarmib was used as a positive control. All the assay plates passed the QC criteria (S/B, Z-factor).

[4] = Metabolic stability in human liver microsomes; type: in vitro ADME; conditions: human liver microsomes 0.5 mg protein/mL, test compound 1 μM, 37° C.; read-out: T1/2 in HLM
Procedure: (§2) The metabolic stability of the compounds disclosed herein was determined by measuring half-life (T1/2) of the compounds in the presence of mouse liver microsomes (MLM) or human liver microsomes (BILM).
(§3) Intermediate solution: 5 μL of compound and control stock solution (10 mM in dimethyl sulfoxide (DMSO)) were diluted with 495 μL of acetonitrile (ACN) (intermediate solution concentration: 100 μM, 99% ACN).
(§4) Working solution: 50 μL of compound and control intermediate solution (100 μM) were diluted with 450 μL of 100 mM potassium phosphate buffer (working solution concentration: 10 μM, 9.9% ACN).
(§5) Controls used in this assay: Testosterone, Diclofenac, and Propafenone.
(§6) Preparation Procedure: The appropriate amount of NADPH powder was weighed and diluted into a 10 mM MgCl2 solution (working solution concentration: 10 unit/mL; final concentration in reaction system: 1 unit/mL).
(§7) The appropriate concentrations of microsome working solutions were prepared in 100 mM potassium phosphate buffer.
(§8) Cold (4° C.) acetonitrile (CAN) containing 200 ng/mL tolbutamide and 200 ng/mL labetalol as internal standards (IS) was used as the stop solution.
(§9) Using an Apricot automation workstation, 10 μL/well of compound working solution were added to all 96-well reaction plates except the blank (T0, T5, T10, T20, T30, T60, and NCF60).
(§10) An Apricot automation workstation was used to add 80 μL/well of microsome solution to all reaction plates (Blank, T0, T5, T10, T20, T30, T60, and NCF60).
(§11) All reaction plates containing mixtures of compound and microsomes were pre-incubated at 37° C. for 10 minutes.
(§12) An Apricot automation workstation was used to add 10 μL/well of 100 mM potassium phosphate buffer to reaction plate NCF60.
(§13) Reaction plate NCF60 was incubated at 37° C. for 60 minutes.
(§14) After pre-incubation, an Apricot automation workstation was used to add 10 μL/well of NADPH regenerating system to every reaction plate except NCF60 (Blank, T0, T5, T10, T20, T30, and T60) to start the reaction. Final concentration of each component in incubation medium: Microsome (0.5 mg protein/mL); Test Compound (1 μM); Control Compound (1 μM); Acetonitrile (0.99%); DMSO (0.01%).
(§15) The reaction plates were incubated at 37° C. for 0 minute (T0, stop solution was added prior to microsome and NADPH solutions), 5 minutes (T5), 10 minutes (T10), 20 minutes (T20), 30 minutes (T30), 60 minutes (T60).
(§16) An Apricot automation workstation was used to add 300 μL/well of stop solution to each reaction plate at its appropriate end time point to terminate the reaction.
(§17) Each plate was sealed and shaken for 10 minutes.
(§18) After shaking, each plate was centrifuged at 4000 rpm and 4° C. for 20 minutes.
(§19) During centrifugation, an Apricot automation workstation was used to add 300 µL/well of HPLC grade water to eight new 96-well plates.
(§20) After centrifugation, an Apricot automation workstation was used to transfer 100 μL of supernatant from each reaction plate to its corresponding bioanaylsis plate.
(§21) Each bioanalysis plate was sealed and shaken for 10 minutes prior to LC-MS/MS analysis.
(§22) The equation of first order kinetics was used to calculate T1/2 and CLint(mic) (μL/min/mg).

[5] = Metabolic stability in mouse liver microsomes; type: in vitro ADME; conditions: CD-1 mouse liver microsomes 0.5 mg protein/mL, test compound 1 μM, 37° C.; read-out: T1/2 in MLM
Procedure: as §2, §3, §4, §5, §6, §7, §8, §9, §10, §11, §12, §13, §14, §15, §16, §17, §18, §19, §20, §21, §22

Row | Compound | IC50 [1] [nM] | IC50 [2] [nM] | IC50 [3] [nM] | half-life at 1 μM [4] [min] | half-life at 1 μM [5] [min]
1 | Cn1cncc1[C@@]1(N)c2ccc(C#N)c(c2)CCc2cccc(c2)-c2cc(C#N)nc3ccc1cc23 [(R)-9, (R)-3-amino-3-(1-methyl-1H-imidazol-5-yl)-2(4,6)-quinolina-1,4(1,3)-dibenzenacyclohexaphane-2^2 4^4-dicarbonitrile] | ≤ 10 | 100 to 1000 | ≤ 50 |  | 
2 | Cn1cncc1[C@@]1(N)c2ccc(C#N)c(c2)OCc2cccc(c2)-c2cc(C#N)nc3ccc1cc23 [(S)-21, (S)-3-amino-3-(1-methyl-1H-imidazol-5-yl)-5-oxa-2(4,6)-quinolina-1,4(1,3)-dibenzenacyclohexaphane-2^2 4^4-dicarbonitrile] | ≤ 10 | 100 to 1000 | ≤ 50 |  | 
3 | Cn1cncc1[C@@]1(O)c2ccc(Cl)c(c2)OCCc2cccc(c2)-c2cc(=O)[nH]c3ccc1cc23 [(S)-25, (S)-4^4-chloro-3-hydroxy-3-(1-methyl-1H-imidazol-5-yl)-2^1,2^2-dihydro-5-oxa-2(4,6)-quinolina-1,4(1,3)-dibenzenacycloheptaphan-2^2-one] | ≤ 10 |  | 50 to 500 | < 30 | < 5
4 | [2H]C([2H])([2H])n1c(=O)cc2c3cc(ccc31)[C@@](O)(c1cncn1C)c1ccc(Cl)c(c1)OCCc1cccc-2c1 [(S)-28, (S)-4^4-chloro-3-hydroxy-2^1-(methyl-d3)-3-(1-methyl-1H-imidazol-5-yl)-2^1,2^2-dihydro-5-oxa-2(4,6)-quinolina-1,4(1,3)-dibenzenacycloheptaphan-2^2-one] | ≤ 10 |  | ≤ 50 | < 30 | < 5
5 | Cn1cncc1[C@@]1(O)c2ccc(Cl)c(c2)OCCc2cccc(c2)-c2cc(=O)n(C3CC3)c3ccc1cc23 [(S)-29, (S)-4^4-chloro-2^1-cyclopropyl-3-hydroxy-3-(1-methyl-1H-imidazol-5-yl)-2^1,2^2-dihydro-5-oxa-2(4,6)-quinolina-1,4(1,3)-dibenzenacycloheptaphan-2^2-one] | ≤ 10 |  | 50 to 500 | < 30 | < 5
6 | Cn1cncc1[C@@]1(N)c2ccc(Cl)c(c2)OCCc2cccc(c2)-c2cc(=O)n(C3CC3)c3ccc1cc23 [(S)-30, (S)-3-amino-4^4-chloro-2^1-cyclopropyl-3-(1-methyl-1H-imidazol-5-yl)-2^1,2^2-dihydro-5-oxa-2(4,6)-quinolina-1,4(1,3)-dibenzenacycloheptaphan-2^2-one] | ≤ 10 |  | 50 to 500 | < 30 | < 5
7 | Cn1cnnc1[C@@]1(N)c2ccc(Cl)c(c2)OCCc2cccc(c2)-c2cc(=O)n(C3CC3)c3ccc1cc23 [(S)-35, (S)-3-amino-4^4-chloro-2^1-cyclopropyl-3-(4-methyl-4H-1,2,4-triazol-3-yl)-2^1,2^2-dihydro-5-oxa-2(4,6)-quinolina-1,4(1,3)-dibenzenacycloheptaphan-2^2-one] | ≤ 10 |  | 50 to 500 | < 30 | < 5
8 | Cn1cncc1[C@@]1(O)c2ccc(C#N)c(c2)OCCc2cccc(c2)-c2cc(=O)n(C)c3ccc1cc23 [(S)-36, (S)-3-hydroxy-2^1-methyl-3-(1-methyl-1H-imidazol-5-yl)-2^2-oxo-2^1,2^2-dihydro-5-oxa-2(4,6)-quinolina-1,4(1,3)-dibenzenacycloheptaphane-4^4-carbonitrile] | ≤ 10 |  | ≤ 50 | < 30 | 5 to 15
9 | Cn1cnnc1[C@@]1(N)c2ccc(C#N)c(c2)OCCc2cccc(c2)-c2cc(=O)n(C)c3ccc1cc23 [(S)-39, (S)-3-amino-2^1-methyl-3-(4-methyl-4H-1,2,4-triazol-3-yl)-2^2-oxo-2^1,2^2-dihydro-5-oxa-2(4,6)-quinolina-1,4(1,3)-dibenzenacycloheptaphane-4^4-carbonitrile] | ≤ 10 |  | ≤ 50 | > 100 | > 15
10 | Cn1cncc1[C@@]1(N)c2ccc(Cl)c(c2)COc2cccc(c2)-c2cc(C#N)nc3ccc1cc23 [(S)-48, (S)-3-amino-4^4-chloro-3-(1-methyl-1H-imidazol-5-yl)-6-oxa-2(4,6)-quinolina-1,4(1,3)-dibenzenacyclohexaphane-2^2-carbonitrile] | ≤ 10 | > 1000 | ≤ 50 |  | 
11 | Cn1cncc1C1(O)c2ccc(Cl)c(c2)COc2cccc(c2)-c2cc(=O)n(C)c3ccc1cc23 (stereo not drawn) [Compound 45, 4^4-chloro-3-hydroxy-2^1-methyl-3-(1-methyl-1H-imidazol-5-yl)-2^1,2^2-dihydro-6-oxa-2(4,6)-quinolina-1,4(1,3)-dibenzenacyclohexaphan-2^2-one] | ≤ 10 |  | ≤ 50 | > 100 | > 15
12 | Cn1cncc1C1(O)c2ccc(Cl)c(c2)CCOc2cccc(c2)-c2cc(=O)n(C)c3ccc1cc23 (stereo not drawn) [Compound 65, 4^4-chloro-3-hydroxy-2^1-methyl-3-(1-methyl-1H-imidazol-5-yl)-2^1,2^2-dihydro-7-oxa-2(4,6)-quinolina-1,4(1,3)-dibenzenacycloheptaphan-2^2-one] | ≤ 10 |  | 50 to 500 | < 30 | 5 to 15
